Reference: PMC6968643, “Synthesis and biological evaluation of novel (E)-N'-benzylidene hydrazides as novel c-Met inhibitors through fragment based virtual screening” (Journal of Enzyme Inhibition and Medicinal Chemistry, 2020)

Assays:
VEGFR-2 = VEGFR-2 (Homo sapiens, UniProt P35968); assay: Kinase activity against VEGFR-2; format: biochemical; conditions: for IC50: Table 3, inhibitory activity (IC50) against VEGFR-2, – = no inhibitory effect
Description: It was consistent with the QSAR predicted results. […] Both of the proteins belong to the family of tyrosine kinase, which catalyse the phosphorylation of tyrosine. […] While subtle differences may make small molecules show different activities against the two kinases. So we superimposed the two kinases in three dimensions to explore the reason.

recombinant c-Met kinase = recombinant c-Met kinase (Homo sapiens, UniProt P08581); assay: Cell-free detection of c-Met kinase activity (ADP-Glo assay)
recombinant c-Met kinase, sequence (P08581 25-1390): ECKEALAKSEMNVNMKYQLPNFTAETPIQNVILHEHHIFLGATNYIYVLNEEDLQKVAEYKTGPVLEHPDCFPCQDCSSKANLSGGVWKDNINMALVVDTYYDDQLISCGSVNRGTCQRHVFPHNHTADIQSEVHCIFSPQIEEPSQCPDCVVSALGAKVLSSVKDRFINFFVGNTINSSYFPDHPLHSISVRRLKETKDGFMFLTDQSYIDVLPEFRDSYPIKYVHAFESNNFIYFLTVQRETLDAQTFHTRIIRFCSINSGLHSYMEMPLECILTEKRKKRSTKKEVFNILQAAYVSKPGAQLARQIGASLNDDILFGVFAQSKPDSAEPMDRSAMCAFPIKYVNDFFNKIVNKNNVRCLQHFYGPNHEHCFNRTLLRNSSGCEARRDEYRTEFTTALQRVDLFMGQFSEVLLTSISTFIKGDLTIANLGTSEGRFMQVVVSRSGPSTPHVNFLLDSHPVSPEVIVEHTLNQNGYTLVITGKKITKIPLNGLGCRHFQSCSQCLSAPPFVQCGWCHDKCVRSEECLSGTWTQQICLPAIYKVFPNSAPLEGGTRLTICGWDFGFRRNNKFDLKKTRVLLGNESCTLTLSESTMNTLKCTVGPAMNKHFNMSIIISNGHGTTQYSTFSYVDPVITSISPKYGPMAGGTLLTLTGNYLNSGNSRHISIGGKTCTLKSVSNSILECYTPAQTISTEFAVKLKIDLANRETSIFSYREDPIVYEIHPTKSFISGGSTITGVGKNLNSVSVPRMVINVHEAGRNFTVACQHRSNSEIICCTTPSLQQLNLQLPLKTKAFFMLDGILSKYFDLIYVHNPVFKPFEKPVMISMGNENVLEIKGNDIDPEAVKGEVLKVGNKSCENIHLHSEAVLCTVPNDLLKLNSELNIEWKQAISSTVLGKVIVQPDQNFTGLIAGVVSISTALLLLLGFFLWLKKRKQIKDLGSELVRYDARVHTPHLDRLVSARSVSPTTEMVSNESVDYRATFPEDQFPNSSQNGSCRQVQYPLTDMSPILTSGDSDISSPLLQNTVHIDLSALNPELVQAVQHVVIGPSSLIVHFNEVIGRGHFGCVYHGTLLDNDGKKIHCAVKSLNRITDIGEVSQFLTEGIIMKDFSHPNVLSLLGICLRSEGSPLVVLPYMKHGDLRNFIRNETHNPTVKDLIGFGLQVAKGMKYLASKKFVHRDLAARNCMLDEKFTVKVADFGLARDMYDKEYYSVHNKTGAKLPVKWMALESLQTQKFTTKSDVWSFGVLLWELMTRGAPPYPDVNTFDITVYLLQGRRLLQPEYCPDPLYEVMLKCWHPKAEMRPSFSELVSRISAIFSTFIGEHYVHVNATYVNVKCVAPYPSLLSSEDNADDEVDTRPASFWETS
Description: The capacity of the novel compounds for inhibiting c-Met activity was evaluated using a cell-free assay.

VEGFR-2, sequence (P35968 20-1356): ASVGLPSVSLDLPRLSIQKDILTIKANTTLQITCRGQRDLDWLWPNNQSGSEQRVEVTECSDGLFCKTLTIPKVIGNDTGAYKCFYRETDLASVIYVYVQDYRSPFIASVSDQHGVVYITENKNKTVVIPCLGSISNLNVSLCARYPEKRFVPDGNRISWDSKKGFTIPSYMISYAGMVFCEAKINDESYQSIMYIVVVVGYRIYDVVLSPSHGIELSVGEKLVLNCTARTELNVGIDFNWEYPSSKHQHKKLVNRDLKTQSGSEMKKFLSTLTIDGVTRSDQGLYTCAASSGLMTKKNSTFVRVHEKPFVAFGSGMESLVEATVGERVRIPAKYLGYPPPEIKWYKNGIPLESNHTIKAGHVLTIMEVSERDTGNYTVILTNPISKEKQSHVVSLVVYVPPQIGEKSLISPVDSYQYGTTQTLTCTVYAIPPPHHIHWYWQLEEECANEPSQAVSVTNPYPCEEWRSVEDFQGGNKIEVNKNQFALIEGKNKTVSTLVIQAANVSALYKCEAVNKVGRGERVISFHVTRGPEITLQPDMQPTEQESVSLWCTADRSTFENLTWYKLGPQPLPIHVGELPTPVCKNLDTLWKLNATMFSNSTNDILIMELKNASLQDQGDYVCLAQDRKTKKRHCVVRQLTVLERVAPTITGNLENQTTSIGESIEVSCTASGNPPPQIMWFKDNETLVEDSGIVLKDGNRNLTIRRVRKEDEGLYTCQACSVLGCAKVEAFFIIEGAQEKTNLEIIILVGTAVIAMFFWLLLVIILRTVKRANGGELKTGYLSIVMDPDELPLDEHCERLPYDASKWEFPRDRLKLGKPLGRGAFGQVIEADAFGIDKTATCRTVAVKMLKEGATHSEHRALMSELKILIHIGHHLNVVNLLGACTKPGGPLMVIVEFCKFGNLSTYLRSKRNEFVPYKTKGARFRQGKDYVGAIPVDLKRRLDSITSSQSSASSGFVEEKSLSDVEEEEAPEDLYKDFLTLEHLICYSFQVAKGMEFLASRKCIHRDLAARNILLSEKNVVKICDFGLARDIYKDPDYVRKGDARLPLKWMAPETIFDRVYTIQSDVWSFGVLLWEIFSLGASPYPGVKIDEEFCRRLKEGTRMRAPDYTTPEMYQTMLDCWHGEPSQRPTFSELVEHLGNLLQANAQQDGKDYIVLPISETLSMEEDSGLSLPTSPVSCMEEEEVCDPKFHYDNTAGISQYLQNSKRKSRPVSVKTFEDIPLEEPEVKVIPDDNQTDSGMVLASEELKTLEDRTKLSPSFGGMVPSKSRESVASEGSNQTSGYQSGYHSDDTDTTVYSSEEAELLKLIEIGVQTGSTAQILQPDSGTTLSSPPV

SMILES	melting point	IC50 (VEGFR-2)	IC50 (recombinant c-Met kinase)	activity against VEGFR-2 (in words) (VEGFR-2)
O=C(Cn1cc(-c2ccccc2)nn1)N/N=C/c1cccc(Cl)c1 [Compound 11b, (E)-N'-(3-chlorobenzylidene)-2-(4-phenyl-1H-1,2,3-triazol-1-yl)acetohydrazide]	259 to 259.8 °C	25.3 nM	0.00341 µM	
O=C(Cn1cc(-c2ccccc2)nn1)N/N=C/c1ccccc1[N+](=O)[O-] [Compound 11e, (E)-N'-(2-nitrobenzylidene)-2-(4-phenyl-1H-1,2,3-triazol-1-yl)acetohydrazide]	225.2 to 225.6 °C		4.28 µM	
CC(=O)Nc1cccc(-c2cn(CC(=O)N/N=C/c3cc(Br)cc(Br)c3O)nn2)c1 [Compound 10g, (E)-2-(4-(3-acetamidophenyl)-1H-1,2,3-triazol-1-yl)-N'-(3,5-dibromo-2-hydroxybenzylidene)acetohydrazide]	237 to 237.5 °C		8.93 µM	
COc1ccc(/C=N/NC(=O)Cn2cc(-c3cccc(NC(C)=O)c3)nn2)c(OC)c1 [Compound 10i, (E)-2-(4-(3-acetamidophenyl)-1H-1,2,3-triazol-1-yl)-N'-(2,4-dimethoxybenzylidene) acetohydrazide]	210.9 to 211.3 °C		0.00173 µM	
CC(=O)Nc1cccc(-c2cn(CC(=O)N/N=C/c3ccccc3O)nn2)c1 [Compound 10d, (E)-2-(4-(3-acetamidophenyl)-1H-1,2,3-triazol-1-yl)-N'-(2-hydroxybenzylidene) acetohydrazide]	253.8 to 254.2 °C		0.266 µM	
CC(=O)Nc1cccc(-c2cn(CC(=O)N/N=C/c3cc(Br)ccc3O)nn2)c1 [Compound 10h, (E)-2-(4-(3-acetamidophenyl)-1H-1,2,3-triazol-1-yl)-N'-(5-bromo-2-hydroxybenzylidene) acetohydrazide]	228.9 to 229.3 °C		> 12 µM	
COc1cc(/C=N/NC(=O)Cn2cc(-c3cccc(NC(C)=O)c3)nn2)cc(OC)c1OC [Compound 10k, (E)-2-(4-(3-acetamidophenyl)-1H-1,2,3-triazol-1-yl)-N'-(3,4,5-trimethoxybenzylidene) acetohydrazide]	210.2 to 212.9 °C		0.0915 µM	
O=C(Cn1cc(-c2ccccc2)nn1)N/N=C/c1cc(Br)cc(Br)c1O [Compound 11g, (E)-N'-(3,5-dibromo-2-hydroxybenzylidene)-2-(4-phenyl-1H-1,2,3-triazol-1-yl) acetohydrazide]	231 to 231.5 °C		> 12 µM	
CC(=O)Nc1cccc(-c2cn(CC(=O)N/N=C/c3ccccc3[N+](=O)[O-])nn2)c1 [Compound 10e, (E)-2-(4-(3-acetamidophenyl)-1H-1,2,3-triazol-1-yl)-N'-(2-nitrobenzylidene)acetohydrazide]	233.2 to 233.8 °C		5.86 µM	
CC(=O)Nc1cccc(-c2cn(CC(=O)N/N=C/c3ccc(O)cc3)nn2)c1 [Compound 10c, (E)-2-(4-(3-acetamidophenyl)-1H-1,2,3-triazol-1-yl)-N'-(4-hydroxybenzylidene) acetohydrazide]	260 to 260.8 °C		11.2 µM	
COc1ccc(/C=N/NC(=O)Cn2cc(-c3ccccc3)nn2)cc1OC [Compound 11j, (E)-N'-(3,4-dimethoxybenzylidene)-2-(4-phenyl-1H-1,2,3-triazol-1-yl)acetohydrazide]	232.1 to 232.5 °C		3.08 µM	
CC(=O)Nc1cccc(-c2cn(CC(=O)N/N=C/c3cc(Cl)ccc3O)nn2)c1 [Compound 10f, (E)-2-(4-(3-acetamidophenyl)-1H-1,2,3-triazol-1-yl)-N'-(5-chloro-2-hydroxybenzylidene) acetohydrazide]	234.6 to 234.9 °C	139 nM	0.00119 µM	
COc1ccc(/C=N/NC(=O)Cn2cc(-c3ccccc3)nn2)c(OC)c1 [Compound 11i, (E)-N'-(2,4-dimethoxybenzylidene)-2-(4-phenyl-1H-1,2,3-triazol-1-yl)acetohydrazide]	230 to 230.4 °C	849 nM	> 12 µM	
O=C(Cn1cc(-c2ccccc2)nn1)N/N=C/c1cc(Br)ccc1O [Compound 11h, (E)-N'-(5-bromo-2-hydroxybenzylidene)-2-(4-phenyl-1H-1,2,3-triazol-1-yl)acetohydrazide]	233 to 233.5 °C		0.0119 µM	
CC(=O)Nc1cccc(-c2cn(CC(=O)N/N=C/c3cccc(Cl)c3)nn2)c1 [Compound 10b, (E)-2-(4-(3-acetamidophenyl)-1H-1,2,3-triazol-1-yl)-N'-(3-chlorobenzylidene)]	255.8 to 256.3 °C	> 12000 nM	0.00037 µM	no activity
O=C(Cn1cc(-c2ccccc2)nn1)N/N=C/c1ccc(Cl)cc1 [Compound 11a, (E)-N'-(4-chlorobenzylidene)-2-(4-phenyl-1H-1,2,3-triazol-1-yl)acetohydrazide]	259 to 259.6 °C		> 12 µM	
O=C(Cn1cc(-c2ccccc2)nn1)N/N=C/c1ccc(O)cc1 [Compound 11c, (E)-N'-(4-hydroxybenzylidene)-2-(4-phenyl-1H-1,2,3-triazol-1-yl)acetohydrazide]	234 to 234.5 °C		5.68 µM	
O=C(Cn1cc(-c2ccccc2)nn1)N/N=C/c1ccccc1O [Compound 11d, (E)-N'-(2-hydroxybenzylidene)-2-(4-phenyl-1H-1,2,3-triazol-1-yl)acetohydrazide]	239 to 239.6 °C		> 12 µM	
CC(=O)Nc1cccc(-c2cn(CC(=O)N/N=C/c3ccc(Cl)cc3)nn2)c1 [Compound 10a, (E)-2-(4-(3-acetamidophenyl)-1H-1,2,3-triazol-1-yl)-N'-(4-chlorobenzylidene)]	234.6 to 234.9 °C		0.0017 µM	
COc1ccc(/C=N/NC(=O)Cn2cc(-c3cccc(NC(C)=O)c3)nn2)cc1OC [Compound 10j, (E)-2-(4-(3-acetamidophenyl)-1H-1,2,3-triazol-1-yl)-N'-(3,4-dimethoxybenzylidene) acetohydrazide]	230 to 230.6 °C		0.00542 µM	
COc1cc(/C=N/NC(=O)Cn2cc(-c3ccccc3)nn2)cc(OC)c1OC [Compound 11k, (E)-2-(4-phenyl-1H-1,2,3-triazol-1-yl)-N'-(3,4,5-trimethoxybenzylidene)acetohydrazide]	233.5 to 233.8 °C		> 12 µM	
O=C(Cn1cc(-c2ccccc2)nn1)N/N=C/c1cc(Cl)ccc1O [Compound 11f, (E)-N'-(5-chloro-2-hydroxybenzylidene)-2-(4-phenyl-1H-1,2,3-triazol-1-yl)acetohydrazide]	240 to 240.6 °C	9860 nM	> 12 µM	
